From paper PMC10375533, “Preference of Bacterial Rhamnosyltransferases for 6-Deoxysugars Reveals a Strategy To Deplete O-Antigens” (Journal of the American Chemical Society, 2023)
Where “and” joins values, the source holds several entries; their conditions need not be identical. Equal values may be shown once. Entries after “also recorded” stand apart in the source; their conditions may differ. Read-outs that look alike come from different tables or passages of the source.

Assays:
[1] = target: T1, E. coli WbbL (Escherichia coli, UniProt P36667); experiment: In vitro inhibition assay of E. coli WbbL with monosaccharides and compound 2; format: biochemical; conditions: 250 µM dTDP-β-L-Rha, 1 mM GlcNAc-PP-undecaprenol
Procedure: Primers were purchased from Invitrogen and sequencing was completed by GENEWIZ (Azenta) or EtonBio. Chemicals were purchased from Sigma Aldrich, CarboSynth, Fisher Scientific, and Cayman without further purification. 1H, 13C, and 31P NMR spectra were recorded on a Bruker Avance III 400, 500, or 600 MHz instrument. All spectra were calibrated using residual non-deuterated solvent as an internal reference and processed using MestReNova (authorized to NYU). Gel filtration purification and analyses was performing using at AKTA pure 15 L instrument (UNICORN™ software, GE Healthcare). HRMS analyses were acquired on an Agilent 6224 Accurate-Mass time-of-flight LC/MS (LC-TOF) spectrometer equipped with an electrospray ionization (ESI) source with an autosampler. GraphPad Prism software 9.0 was used for all plotting and data analysis unless otherwise noted. Statistical significance of grouped data was assessed using paired t-tests in Prism. For the IC50 calculation, data were fit in Prism using the equation log(inhibitor) versus response (three parameters): y = bottom + (top-bottom)/(1+10^(X-log IC50)) based on the assumption the Hill slope would be 1, as predicted by ITC results with n ~ 1 for donor ligands. Data was normalized to controls without enzyme and with no inhibitor added. Confidence intervals were calculated based on the standard error. 1M TEAB buffer was prepared by suspending triethylamine (1 mol, 139 mL) in water (700 mL) and passing carbon dioxide (from evaporated dry ice) through the mixture until the pH=7.5. The buffer was diluted to 1L and stored as a stock solution at 4 °C. Prior to use it was diluted to 50 mM in deionized H2O […]
Methods for protein and cellular biochemistry/bioinformatics used in this study.
Bioinformatic approach to identify Thermus thermophilus RfbF as a putative glycolipid RT.
The Carbohydrate-Active Enzymes Database (CAZy.org) was used to identify thermophilic organisms with annotated glycosyltransferases (GTs).11-12 Genes annotated as wbbL have been experimentally shown to encode dTDP-rhamnosyltransferases that transfer L-Rha onto N-acetyl--a-D-glucosamine-1-diphospholipid acceptors.13-14 In Shigella flexneri, the protein encoded by rfbF was noted to carry out the same biochemical activity as WbbL based on genetic and LPS analyses.15-16 Both E. coli WbbL and S. flexneri RfbF belong to the GT2 family. A CAZy search for rfbF and wbbL was performed in the genomes of Gram-negative extreme thermophiles, which […]
(GenBank: AAS80876.1), which had not yet been biochemically characterized. Protein ANalysis […]
(§1) thermodynamic values were evaluated using ITCRun software (TA Instruments) and fit with a […]
Specific activities were determined by modification of the protocol outlined by Li et al. […]

[2] = target: T1, E. coli WbbL; experiment: Specific activity assay of rhamnosyltransferase (HPLC, rSAP-coupled), E. coli WbbL membrane fraction; format: biochemical; conditions: native donor dTDP-β-L-Rha, t = 1 h
Procedure: as §1
Specific activity assays for bacterial rhamnosyltransferases from different species.
Specific activities were determined by modification of the protocol outlined by Li et al.
Specifically, 0.155 mg/mL RfbF, 0.081 mg/mL E. coli WbbL, or 0.111 mg/mL Mtb WbbL were used to initiate the following reaction mixtures: 25 mM Tris-HCl pH 7.5, 1 mM GlcNAc-PP-lipid, 1 mM donor-substrate, 5 mM MgCl2, 1 U rSAP (1000 U/mL stock solution), 1% (v/v) Triton X-100, 5% (v/v) DMSO (for reactions containing C55, C20, C15 lipid) or MeOH (for reactions containing C35 lipid) in a total volume of 20 µL. […]
Consumption of NDP-sugar donors was monitored on reverse phase HPLC equipped with a Phenomenex 5 µm, 21.2 x 150 mm, NX-C18 Å Gemini column with solvent A (50 mM TEAB pH 8.0) and solvent B (acetonitrile) using the following linear gradient: 0% B (t = 0-5 min), 0-5% B (t = 5-25 min), 5-90% B (t = 25-35 min). Absorbance at wavelength (l) = 254 nm was monitored.
Consumption was quantified by integration of dTDP-sugar donors relative to the total amount of thymidine-containing products, which was then subtracted from the starting dTDP-sugar concentration at the t = 0 time point. […] Characterization of each reaction was monitored by scanning in the negative ion mode and analyzed using Agilent MassHunter […]

[3] = target: T. thermophilus RfbF (Thermus thermophilus, UniProt Q72KB9); experiment: Isothermal titration calorimetry (ITC) binding measurements with RfbF; conditions: ITC
[4] = tested on: WbbL-dependent O-Ag synthesis in E. coli expressing wbbL; format: cell-based, Escherichia coli
[5] = tested on: E. coli cells with or without wbbL; experiment: Growth inhibition / toxicity of 2 with E. coli (OD600); conditions: ~2 mM / low millimolar concentrations of 2, E. coli +/- wbbL
[6] = tested on: crude Mtb WbbL; conditions: cited from earlier work
[7] = 25 °C, ligand titrated into 110 µM RfbF

T1 sequence (P36667 whole entry, looked up): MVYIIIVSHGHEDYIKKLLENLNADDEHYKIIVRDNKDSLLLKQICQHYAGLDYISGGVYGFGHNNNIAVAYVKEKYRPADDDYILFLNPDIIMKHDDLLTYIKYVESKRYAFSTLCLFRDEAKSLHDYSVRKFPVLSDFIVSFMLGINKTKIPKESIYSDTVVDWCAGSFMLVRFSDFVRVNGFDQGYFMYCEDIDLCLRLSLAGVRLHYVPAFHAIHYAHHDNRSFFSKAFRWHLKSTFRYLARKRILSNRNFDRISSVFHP
Chain of T. thermophilus RfbF (Q72KB9 entry or part of it): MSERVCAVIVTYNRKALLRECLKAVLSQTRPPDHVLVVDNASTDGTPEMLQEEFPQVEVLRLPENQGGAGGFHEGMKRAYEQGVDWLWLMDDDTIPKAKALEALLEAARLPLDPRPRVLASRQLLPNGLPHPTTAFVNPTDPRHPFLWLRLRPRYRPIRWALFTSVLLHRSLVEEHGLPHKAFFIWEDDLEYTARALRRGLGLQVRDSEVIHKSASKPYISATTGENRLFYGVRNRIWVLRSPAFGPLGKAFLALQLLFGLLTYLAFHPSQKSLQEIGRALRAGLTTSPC

For `OC[C@@H]1OC(O)[C@H](O)[C@H](O)[C@H]1O` (stereo partly drawn) [L-Man, L-Mannose, reference compound], the “inhibition of E. coli WbbL” value ([1]; 5 mM inhibitor, 8 min) was “Lack of inhibition”.
In the case of `N[C@@H](CO)C(=O)O` [Ser], the “turnover as noncanonical acceptor with the native donor” value [2] is reported as “no turnover”.
With `CC(=O)NC1C(OP(=O)(O)OP(=O)(O)OCC2OC(n3ccc(=O)[nH]c3=O)C(O)C2O)OC(CO)C(O)C1O` [UDP-α-D-GlcNAc, UDP-a-N-acetyl-D-glucosamine, reference compound] the “turnover as noncanonical acceptor with the native donor” value ([2]; listed as UDP-α-GlcNAc) was “no turnover; also recorded: not used as an acceptor”, the ΔG [3, 7] was “N/B” and the ΔH [3, 7] was “N/B”. For the same compound, the ΔS [3, 7] was “N/B”, the KD ([3]; 25 °C, ligand titrated into 110 µM RfbF, one-site model, spread = SD, triplicate) was “N/B” and the “binding to RfbF by ITC (in words)” value ([3]; ligand titrated into 110 µM RfbF, listed as UDP-a-D-GlcNAc) was “no”. For the same compound, the “binding to RfbF by ITC (in words)” value ([3]; ligand titrated into 110 µM RfbF, listed as UDP-α-GlcNAc) was “did not bind at μM concentrations”.
In the case of `C[C@@H]1NC[C@H](O)[C@H](O)[C@H]1O` [compound 2, 1,5-dideoxy-1,5-imino-L-rhamnitol], the “reduction of O-Ag levels by densitometry” value ([4]; E. coli expressing wbbL grown with 2 versus untreated, silver stain / anti-O16 blot of purified LPS) is reported as about 40%, the “reduction of LPS produced versus untreated cells” value ([4]; E. coli expressing wbbL grown with ~2 mM 2, equivalent number of cells, mass of extracted LPS) is reported as over 50% and the IC50 ([1]; 0.0101 mg/mL E. coli WbbL, 95% confidence interval, read-out: half maximal inhibitory concentration (IC50)) is reported as ~3000 µM and 3160 µM. The inhibition at 5000 µM ([1]; 5 mM inhibitor, 8 min) was about 53%, the “binding to RfbF by ITC (in words)” value ([3]; ligand titrated into 110 µM RfbF) was “no measurable binding” and the Kd ([3]; KD (beyond measurable limit), 5-10 mM ligand titrated into 110 µM RfbF) was over 1000 µM. For the same compound, the “toxicity to E. coli (growth, OD600)” value [5] was “not toxic”.
In the case of `Cc1cn(C2CC(O)C(COP(=O)(O)OP(=O)(O)OC3OC(C)C(O)C(O)C3O)O2)c(=O)[nH]c1=O` [dTDP-β-L-Rha, reference compound], the Km [6] is given as about 35 µM, the ΔG [3, 7] is given as -6.77 (.38) kcal/mol and the ΔH [3, 7] is given as -8.68 (0.59) kcal/mol. The ΔS [3, 7] was -6.43 (0.68) cal/mol·K, the Kd ([3]; 25 °C, ligand titrated into 110 µM RfbF, one-site model, spread = SD, triplicate, read-out: KD) was about 8 µM and the Kd ([3]; KD, 25 °C, ligand titrated into 110 µM RfbF, one-site model, spread = SD, triplicate) was 8.31 ± 3.66 µM.
In the case of L-rhamnose [reference compound], the “inhibition of E. coli WbbL” value ([1]; 5 mM inhibitor, 8 min) is reported as 38%.
